Test results reported in patent publication US4201865A, “Novel prostaglandin analogues” (Gruppo Lepetit S.p.A., priority 1978, dated 1980).

Test system: acidic gastric secretion
Test: inhibition of the acidic gastric hypersecretion induced by histamine in dogs (gastric fistula and Haidenhain pouche)
Type: in vivo, mongrel dogs
Conditions: mean of four dogs; for % inhibition of the acidic gastric secretion over the controls in the H.P.: histamine 160 μg kg^-1 h^-1, denervated Haidenhain pouche; for % inhibition of the acidic gastric secretion over the controls in the G.F.: histamine 160 μg kg^-1 h^-1, innervated gastric fistula (main stomach)
Procedure: In the actual practice, the gastric antisecretory properties were evaluated on the basis of their effectiveness in inhibiting the hyperacidity induced by hystamine in dogs. Hystamine, which is a potent stimulator of the acidic gastric secretion (see Bertaccini et al. Eur. Journ. Pharmacol., 28, 360, 1974), was administered intravenously by continuous infusion during the experiments.
A group of four mongrel dogs weighing approximately 20 Kg was used in each experiments.
The dogs were surgically operated in the stomachs according to the method described by Bertaccini et al. (see above), in order to provide each animal with an innervated gastric fistula (G.F.) or main stomach, and a denervated Haidenhain pouche (H.P.).
The main stomach and the Haidenhain pouche were each equipped with a cannula in order to allow the gastric juices to drain to the exterior by gravity. The two surgically prepared cavities allow to determine if the antisecretory effect has to be ascribed to a direct action of the tested compounds on the oxyntic cells ie., the cells of the gastric walls secreting acidity, (inhibition of the hyperacidity produced both by G.F. and H.P.) or if it is mediated by the autonomous nervous system (inhibition of the hyperacidity produced only by G.F.). After a period of four to five weeks which was allowed to the animals for recovery, the dogs were administered intravenously with histamine in the amount of 160 micrograms of hystamine per kg. of body weight per hour (160 μg-kg^-1 h^-1) in order to stimulate the acidic secretion both in the G.F. and in the H.P. The maximum secretory effect was reached after approximately 1 hour and the infusion of histamine was prolonged for approximately three further hours. During the whole period of infusion, the acidic output was collected every ten minutes and titrated by means of NaOH 0.1 to pH 7.0 on an automatic titrator (Radiometer, Copenhagen). The so-obtained values (mean of four dogs) were considered as the "control values". Food, but not water, was withheld 18 hours before each experiments. At the beginning, the dogs were administered with 160 μg kg^-1 h^-1 of histamine. After reaching the maximum secretory value ie., approximately after 1 hour, the compound to be tested was administered intravenously at predetermined dosages per kg. of body weight during one hour, while the infusion of histamine at the above dosage was carried on. During this period the acidic output both from the G.F. and H.P. was collected every ten minutes and titrated as described above.
By means of the so obtained values (mean of four dogs) and the corresponding "control values" ie., the values obtained by determining the acidic output for one hour after the maximum secretory effect due to histamine was reached, it was possible to establish, by obvious calculations, the percent inhibition of the acidic gastric secretion both from the G.F. and the H.P. of the tested compounds versus the controls.
Representative experiments have shown that dosages varying from about 50 to about 100 μg/kg hour practically block the gastric hyperacidity induced by histamine both in the G.F. and in the H.P. This can be seen from the following table, wherein the results obtained by testing the compound of example 2 having [α]D^20 =-77.7 (c=0.67% in CHCl3) and the compound of example 5 having [α]D^20 =-45 (c=0.46% in CHCl3) are reported: […]

[1] = 10 μg kg^-1 h^-1, intravenous during one hour
[2] = 25 μg kg^-1 h^-1, intravenous during one hour
[3] = 50 μg kg^-1 h^-1, intravenous during one hour
[4] = 100 μg kg^-1 h^-1, intravenous during one hour

SMILES	% inhibition of the acidic gastric secretion over the controls in the H.P. [1]	% inhibition of the acidic gastric secretion over the controls in the G.F. [1]	% inhibition of the acidic gastric secretion over the controls in the H.P. [2]	% inhibition of the acidic gastric secretion over the controls in the G.F. [2]	% inhibition of the acidic gastric secretion over the controls in the H.P. [3]	% inhibition of the acidic gastric secretion over the controls in the G.F. [3]	% inhibition of the acidic gastric secretion over the controls in the H.P. [4]	% inhibition of the acidic gastric secretion over the controls in the G.F. [4]
CCCCC(OC)C(O)/C=C/[C@H]1[C@H](O)CC(=O)[C@@H]1C/C=C\CCCC(=O)OC (single isomer, unassigned) [Example 2, 11α, 15-Dihydroxy-16-methoxy-9-oxo-prosta-5(Z),13(E)-diene-1-oic-acid methyl esters]	25%	25%	50%	50%	95%	95%		
CCCCC(C)(OC)C(O)/C=C/[C@H]1[C@H](O)CC(=O)[C@@H]1C/C=C\CCCC(=O)OC (single isomer, unassigned) [Example 5, 11α,15-Dihydroxy-16-methyl-16-methoxy-9-oxo-prosta-5(Z), 13(E)-diene-1-oic acid methyl esters]	20%	20%			55%	55%	100%	100%
